Reference: patent US20260356856A1, “KRAS G12S AND G12C INHIBITORS” (MIRATI THERAPEUTICS, INC., priority 2023, published 2026)

What was measured:
[1] = target: T1, KRas G12S (Homo sapiens, UniProt P01116, G12S); test: KRas binding assay, TR-FRET displacement of Cy5 labelled tracer; settings: 60-minute incubation at room temperature, 1% DMSO, pH 7.5
T1 construct: Biotinylated KRas (corresponding to amino acids 1-169, produced at Accelegan Inc.); biotin (biotinylated); purchased Accelegan Inc
Method in brief: (§1)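 Each mutant protein, a biotinylated 1-169 construct, was combined with terbium streptavidin, tracer and compound. After sixty minutes at room temperature TR-FRET was recorded. POC data were fitted with a four-parameter IC50 model.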

[2] = target: T2, KRas WT (Homo sapiens, UniProt P01116); test: as above; settings: 60-minute incubation at room temperature, 1% DMSO, pH 7.5
T2 construct: Biotinylated KRas (corresponding to amino acids 1-169, produced at Accelegan Inc.); biotin (biotinylated); purchased Accelegan Inc
T2 sequence (P01116 1-169 isoform P01116-2): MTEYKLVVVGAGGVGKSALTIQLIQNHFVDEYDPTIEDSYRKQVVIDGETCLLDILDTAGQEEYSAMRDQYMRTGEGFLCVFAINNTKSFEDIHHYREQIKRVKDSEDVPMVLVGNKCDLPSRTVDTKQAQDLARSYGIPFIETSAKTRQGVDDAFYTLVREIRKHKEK
Method in brief: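 Room-temperature incubation (60 min) of compound with biotinylated KRas 1-169, tracer and Tb-streptavidin preceded the TR-FRET read. Final DMSO was 1%; buffer pH 7.5. Percent-of-control values went into a 4-parameter equation to give IC50.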

[3] = target: T3, KRas G12C (Homo sapiens, UniProt P01116, G12C); test: as above; settings: 60-minute incubation at room temperature, 1% DMSO, pH 7.5
T3 construct: Biotinylated KRas (corresponding to amino acids 1-169, produced at Accelegan Inc.); biotin (biotinylated); purchased Accelegan Inc
T3 sequence (P01116 1-169 isoform P01116-2 G12C): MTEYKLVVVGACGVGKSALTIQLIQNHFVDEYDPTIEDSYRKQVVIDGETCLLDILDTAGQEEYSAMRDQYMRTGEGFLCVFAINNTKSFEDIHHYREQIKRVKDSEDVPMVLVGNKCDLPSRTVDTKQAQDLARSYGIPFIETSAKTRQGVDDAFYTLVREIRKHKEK
Method in brief: as §1

[4] = target: T4, KRas-mediated phosphorylation of ERK in A549 cells (Homo sapiens, UniProt P01116, G12S); test: Inhibition of KRas-mediated phosphorylation of ERK (HTRF), A549 cells; format: cell-based; settings: HTRF pERK, 3 h incubation
T4 construct: pERK HTRF read-out
T4 sequence (P01116 1-188 isoform P01116-2 G12S): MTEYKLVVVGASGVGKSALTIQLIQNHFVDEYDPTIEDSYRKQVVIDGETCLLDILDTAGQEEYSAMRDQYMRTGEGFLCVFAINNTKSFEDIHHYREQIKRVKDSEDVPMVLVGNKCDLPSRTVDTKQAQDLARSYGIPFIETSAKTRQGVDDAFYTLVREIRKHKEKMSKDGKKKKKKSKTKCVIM

[5] = target: T5, KRas-mediated phosphorylation of ERK in H358 cells (Homo sapiens, UniProt P01116, G12C); test: Inhibition of KRas-mediated phosphorylation of ERK (HTRF), H358 cells; format: cell-based; settings: HTRF pERK, 3 h incubation
T5 construct: pERK HTRF read-out
T5 sequence (P01116 1-188 isoform P01116-2 G12C): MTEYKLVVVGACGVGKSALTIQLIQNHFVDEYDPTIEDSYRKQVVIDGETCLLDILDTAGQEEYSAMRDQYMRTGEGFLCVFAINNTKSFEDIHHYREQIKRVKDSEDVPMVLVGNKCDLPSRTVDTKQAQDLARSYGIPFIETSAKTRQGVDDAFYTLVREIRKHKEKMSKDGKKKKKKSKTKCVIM

[6] = target: T6, KRas-mediated phosphorylation of ERK in MKN1 cells (Homo sapiens, UniProt P01116); test: Inhibition of KRas-mediated phosphorylation of ERK (HTRF), MKN1 cells; format: cell-based; settings: MKN1 cells (KRas WT); HTRF pERK; 3 h incubation
T6 construct: pERK HTRF read-out
T6 sequence (P01116 1-188 isoform P01116-2): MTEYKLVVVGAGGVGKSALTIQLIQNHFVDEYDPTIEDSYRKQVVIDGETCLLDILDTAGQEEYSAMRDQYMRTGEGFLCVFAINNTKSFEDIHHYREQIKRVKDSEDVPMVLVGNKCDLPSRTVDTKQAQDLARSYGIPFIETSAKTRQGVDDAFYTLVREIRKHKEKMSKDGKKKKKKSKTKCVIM
Method: Inhibition of KRas Phosphorylation of ERK (HTRF) by Exemplary Compounds of Formula (Ia) or (Ib)
Cisbio HTRF Advanced pERK Assay Catalog #64AERPEH • Cells: MKN1, PSN1 • Procedure: • 1. Day 1: Seed 6,000 cells/well −25 μl/well in 384-well white solid bottom plate; RPM1_10% FBS. Incubate overnight at 37 °C/5% CO2. • 2.

T1 sequence (P01116 1-169 isoform P01116-2 G12S): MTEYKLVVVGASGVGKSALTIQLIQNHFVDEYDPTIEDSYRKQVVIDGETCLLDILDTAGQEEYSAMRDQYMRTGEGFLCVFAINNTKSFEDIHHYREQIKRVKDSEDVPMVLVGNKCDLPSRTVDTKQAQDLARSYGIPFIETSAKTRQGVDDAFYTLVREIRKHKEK

| SMILES | IC50 [1] [nM] | IC50 [2] [nM] | IC50 [3] [nM] | IC50 [4] [nM] | IC50 [5] [nM] | IC50 [6] [nM] |
| --- | --- | --- | --- | --- | --- | --- |
| CCc1cc(O)cc2cccc(-c3c(Cl)cc4c(N5CCCC(C(=O)n6ccc(C)n6)CC5)nc(OC[C@@]56CCCN5C[C@H](F)C6)nc4c3F)c12 (stereo partly drawn) [Example 264, (1-(6-chloro-7-(8-ethyl-6-hydroxynaphthalen-1-yl)-8-fluoro-2-(((2R,7aS)-2-fluorotetrahydro-1H-pyrrolizin-7a(5H)-yl)methoxy)quinazolin-4-yl)azepan-4-yl)(3-methyl-1H-pyrazol-1-yl)methanone] | 232 | 732 | 170 | 138 | 847 | 3490 |
| CCc1c(F)ccc2cc(O)cc(-c3ncc4c(NC[C@@H]5C[C@H]5C(=O)N(C)C(C)=O)nc(OC[C@@]56CCCN5C[C@H](F)C6)nc4c3F)c12 [Example 281, trans-N-acetyl-2-(((7-(8-ethyl-7-fluoro-3-hydroxynaphthalen-1-yl)-8-fluoro-2-(((2R,7aS)-2-fluorotetrahydro-1H-pyrrolizin-7a(5H)-yl)methoxy)pyrido[4,3-d]pyrimidin-4-yl)amino)methyl)-N-methylcyclopropane-1-carboxamide] | 10 | 8 | 9 | 243 | 198 | 41 |
| CN(C(=O)C1CCN(c2nc(OC[C@@]34CCCN3C[C@H](F)C4)nc3c(F)c(-c4ccc(F)c5sc(N)c(C#N)c45)c(Cl)cc23)CC1)c1cccnc1 [Example 289, 1-(7-(2-amino-3-cyano-7-fluorobenzo[b]thiophen-4-yl)-6-chloro-8-fluoro-2-(((2R,7aS)-2-fluorotetrahydro-1H-pyrrolizin-7a(5H)-yl)methoxy)quinazolin-4-yl)-N-methyl-N-(pyridin-3-yl)piperidine-4-carboxamide] | 18 | 5 | 10 | 271 | 81 | 33 |
| CN(C)c1ccn(C(=O)C2CCCN(c3nc(OC[C@@]45CCCN4C[C@H](F)C5)nc4c(F)c(-c5ccc(F)c6sc(N)c(C#N)c56)c(Cl)cc34)CC2)n1 (stereo partly drawn) [Example 188, 2-amino-4-(6-chloro-4-(4-(3-(dimethylamino)-1H-pyrazole-1-carbonyl)azepan-1-yl)-8-fluoro-2-(((2R,7aS)-2-fluorotetrahydro-1H-pyrrolizin-7a(5H)-yl)methoxy)quinazolin-7-yl)-7-fluorobenzo[b]thiophene-3-carbonitrile] | 13 | 26 | 8 | 39 | 9 | 140 |
| CN(CCN(C)c1nc(OC[C@@]23CCCN2C[C@H](F)C3)nc2c(F)c(-c3ccc(F)c4sc(N)c(C#N)c34)c(Cl)cc12)C(=O)n1cncn1 [Example 232, N-(2-((7-(2-amino-3-cyano-7-fluorobenzo[b]thiophen-4-yl)-6-chloro-8-fluoro-2-(((2R,7aS)-2-fluorotetrahydro-1H-pyrrolizin-7a(5H)-yl)methoxy)quinazolin-4-yl)(methyl)amino)ethyl)-N-methyl-1H-1,2,4-triazole-1-carboxamide] | 7 | 12 | 3 | 234 | 3 | 97 |
| Cc1ccn(C(=O)C2CC3CN(c4nc(OC[C@@]56CCCN5C[C@H](F)C6)nc5c(F)c(-c6ccc(F)c7sc(N)c(C#N)c67)c(Cl)cc45)CC32)n1 (stereo partly drawn) [Example 178, 2-amino-4-(6-chloro-8-fluoro-2-(((2R,7aS)-2-fluorotetrahydro-1H-pyrrolizin-7a(5H)-yl)methoxy)-4-(6-(3-methyl-1H-pyrazole-1-carbonyl)-3-azabicyclo[3.2.0]heptan-3-yl)quinazolin-7-yl)-7-fluorobenzo[b]thiophene-3-carbonitrile] | 15 | 44 | 13 | 108 | 226 | 356 |
